Assays:
[1] = tested on: male mice (ddY strains), reserpine ulcer; test: Anti-reserpine ulcer activity; type: in vivo; conditions: Mus musculus, ip, 18 h, i.p., 5 mice, reserpine 10 mg/kg s.c., read-out: Inhibitory Ratio (ulcer area)
Procedure: The test was carried out in accordance with the method described by C. Blackmann, D. S. Campion and F. N. Fastier in British Journal of Pharmacology and Chemotherapy, vol. 14, 112 (1959), which is as follows:
The test compound was intraperitoneally administered to male mice (ddY strains, body weight: 28-33 g), and, 30 minutes later, reserpine was subcutaneously administered in the dose of 10 mg/kg. After 18 hours from the reserpine administration, the animal was sacrificed, and the stomach was isolated. This stomach was inflated with 2 ml of 0.5% formalin and was fixed. Then, the stomach was opened by cutting along the greater curvature, and the ulcer area*^(1) was measured with a stereoscopic microscope. The ulcer areas of the treated group and the control group were compared, and the inhibitory ratios were calculated.
*(1) ulcer area (mm^2): sum of each ulcer area (longitude×latitude).
The anti-reserpine ulcer activity shown when the test compound was intraperitoneally administered is set out in Table 1.

[2] = tested on: male rats (Donryu strain), stress ulcer; test: Anti-stress ulcer activity (restraint-immersion); type: in vivo, rat; conditions: for Ulcer index: control 22.3
Procedure: The test was carried out in accordance with the method described by K. takagi and S. Okabe in The Japanese Journal of Pharmacology, vol. 18, 9 (1968), which is as follows:
Male rats (Donryu strain, body weight: 200-220 g) were placed under restraint in a stress cage and immersed vertically in the water bath kept at 23°±1° C. to the height of the xiphoid of the animal. After restraint-immersion for 8 hours, the animals were sacrificed. The stomach was fixed with formalin and measured in its ulcer index *^(2). The ulcer indices of the treated group and the control group were compared, and the inhibitory ratios were calculated. The test compound was orally administered for 3 days prior to and immediately before the restraint-immersion.
*(2) ulcer index (mm): sum of the length of each linear ulcer.
The anti-stress ulcer activity shown when the test compound was orally administered is set out in Table 2.

[3] = tested on: male rats (Donryu strain), cysteamine duodenal ulcer; test: Anti-cysteamine duodenal ulcer activity; type: in vivo, rat; conditions: for Duodenal ulcer index: score 0-5, control 2.45
Procedure: The test was carried out in accordance with the method described by H. Selye and S. Szabo in Nature, vol. 244, 458 (1973), which is as follows. Male rats (Donryu strain, body weight: 200-220 g) had been fasted overnight, were orally treated with 300 mg/kg of cysteamine to induce duodenal ulcer. The test compounds were orally administered four times, that is, for two days prior to, immediately before and on the day next to the treatment of cysteamine. The animals were killed two days after the treatment of cysteamine, and the duodenal ulcer index*^(3) was determined. The duodenal ulcer indices of the treated group and the control group were compared, and the inhibitory ratios were calculated. |^(*3) Duodenal ulcer index: Ulcer of each animal was |scored according to the |following criteria. |0: no lesion |1: hemorrhagic spots |2: product of longitudinal and latitudinal diameters |(S) ≤ 16 mm^2 |3: product of longitudinal and latitudinal diameters |(S) ≤ 16 mm^2, 16 < (s) ≤ 25 |4: product of longitudinal and latitudinal diameters |(S) ≤ 16 mm^2, (s) > 25 mm^2 |5: perforated ulcer The anti-cysteamine duodenal ulcer activity shown when the compound was orally administered is set out in Table 3.

[4] = tested on: ddY strain male mouse; test: Acute toxicity, ddY strain male mouse; type: in vivo; conditions: 5,000 mg/kg orally given
Source text: (§1) The acute toxicity of the compound A is set out in Table 4.

[5] = tested on: Donryu strain male rat; test: Acute toxicity, Donryu strain male rat; type: in vivo; conditions: 1,000 mg/kg orally given
Source text: as §1

[6] = Arch. int. Pharmacodyn., 1964, 147, 113; cited from earlier work
[7] = 100 mg/kg/day × 4, p.o., Compound A marked *significant inhibition, probability less than 0.05
[8] = 300 mg/kg/day × 4, p.o., Compound A marked *significant inhibition, probability less than 0.05

CC(=O)OC/C=C(\C)CC/C=C(/CC/C=C(\C)CCC=C(C)C)COC(C)=O [Compound D, (E,Z,E)7-hydroxymethyl-3,11,15-trimethyl-2,6,10,14-hexadecatetraen-1-ol diacetate]
inhibition in vivo at 127 mg/kg [1]: 54.2%

CC(C)=CCC/C(C)=C/CC/C(=C\CC/C(C)=C/CO)CO [Compound H, (E,E,E)7-hydroxymethyl-3,11,15-trimethyl-2,6,10,14-hexadecatetraen-1-ol]
inhibition in vivo at 100 mg/kg [1]: 57%

CC(=O)OC/C=C(\C)CCC=C(CCC=C(C)CC/C=C(\C)CCC=C(C)C)COC(C)=O [Compound P, 7-Hydroxymethyl-3,11,15,19-tetramethyl-2,6,10,14,18-eicosapentaen-1-ol diacetate]
inhibition in vivo at 150 mg/kg ([1]; 150 mg/kg): 45.7%

CC(C)=CCC/C(C)=C/CC/C(=C/CC/C(C)=C/CO)CO [Compound A, (E,Z,E)7-hydroxymethyl-3,11,15-trimethyl-2,6,10,14-hexadecatetraen-1-ol]
inhibition in vivo at 100 mg/kg [1]: 68.4%
Inhibitory ratio (ulcer index) ([2]; 10 mg/kg/day × 4, p.o.): 17
Ulcer index ([2]; 10 mg/kg/day × 4, p.o.): 18.5 mm
Inhibitory ratio (ulcer index) ([2]; 30 mg/kg/day × 4, p.o., *significant inhibition, probability less than 0.05): 37
Ulcer index ([2]; 30 mg/kg/day × 4, p.o.): 13.8 mm
Inhibitory ratio (ulcer index) [2, 7]: 43
Ulcer index ([2]; 100 mg/kg/day × 4, p.o.): 12.7 mm
Inhibitory ratio (duodenal ulcer index) ([3]; 100 mg/kg/day × 4, p.o.): 18
Duodenal ulcer index ([3]; 100 mg/kg/day × 4, p.o.): 2.00
Inhibitory ratio (duodenal ulcer index) [3, 8]: 34
Duodenal ulcer index ([3]; 300 mg/kg/day × 4, p.o.): 1.56
Death/Survival [4]: 0/5
Death/Survival [5]: 0/5

COC/C=C(\C)CC/C=C(/CC/C=C(\C)CCC=C(C)C)COC [Compound G, (E,Z,E)7-hydroxymethyl-3,11,15-trimethyl-2,6,10,14-hexadecatetraen-1-ol dimethyl ether]
inhibition in vivo at 109 mg/kg ([1]; 109 mg/kg): 45%

CC(C)=CCC/C(C)=C/CC/C(=C\CC/C(C)=C\CO)CO [Compound J, (Z,E,E)7-hydroxymethyl-3,11,15-trimethyl-2,6,10,14-hexadecatetraen-1-ol]
inhibition in vivo at 100 mg/kg [1]: 49.4%

CC(C)=CCC/C(C)=C\CCC(=CCC/C(C)=C/CO)CO [Compound K, (E,Z,Z) & (E,E,Z)7-hydroxymethyl-3,11,15-trimethyl-2,6,10,14-hexadecatetraen-1-ol]
inhibition in vivo at 100 mg/kg [1]: 58.7%

NC(=O)CC[C@H](N)C(=O)O [L-Glutamine, reference compound]
Inhibitory ratio (duodenal ulcer index) ([3]; 1000 mg/kg/day × 4, p.o.): 31
Duodenal ulcer index ([3]; 1000 mg/kg/day × 4, p.o.): 1.70

CCCCCCCCCCCC(=O)OC/C=C(\C)CC/C=C(/CC/C=C(\C)CCC=C(C)C)COC(=O)CCCCCCCCCCC [Compound F, (E,Z,E)7-hydroxymethyl-3,11,15-trimethyl-2,6,10,14-hexadecatetraen-1-ol dilaurate]
inhibition in vivo at 220 mg/kg ([1]; 220 mg/kg): 63.3%

C/C(=C\CC/C(C)=C/CCC(=CCC/C(C)=C/CO)CO)CO [Compound N, 7,15-Dihydroxymethyl-3,11-dimethyl-2,6,10,14-hexadecatetraen-1-ol]
inhibition in vivo at 105 mg/kg ([1]; 105 mg/kg): 64.5%

CC(C)=CCCC(C)=CCCC(C)=CCCC(=O)OC/C=C(\C)CCC=C(C)C [Gefarnate, geranyl farnesylacetate, reference compound]
inhibition in vivo at 100 mg/kg [1]: 10%
Inhibitory ratio (ulcer index) [2, 7]: -13
Ulcer index ([2]; 100 mg/kg/day × 4, p.o.): 25.3 mm
Inhibitory ratio (ulcer index) ([2]; 300 mg/kg/day × 4, p.o.): -57
Ulcer index ([2]; 300 mg/kg/day × 4, p.o.): 35.0 mm
Inhibitory ratio (duodenal ulcer index) [3, 8]: 10
Duodenal ulcer index ([3]; 300 mg/kg/day × 4, p.o.): 2.20
anti-ulcer activity [6]: has an anti-ulcer activity

CC(C)=CCCC(=CCC/C(C)=C/CO)CO [Compound M, (E,Z) & (E,E)7-hydroxymethyl-3,11-dimethyl-2,6,10-dodecatrien-1-ol]
inhibition in vivo at 77.8 mg/kg ([1]; 77.8 mg/kg): 60.1%

CC(=O)OC/C=C(\C)CC/C=C(\CC/C=C(\C)CCC=C(C)C)COC(C)=O [Compound I, (E,E,E)7-hydroxymethyl-3,11,15-trimethyl-2,6,10,14-hexadecatetraen-1-ol diacetate]
inhibition in vivo at 127 mg/kg [1]: 64.5%

CC(C)=CCC/C(C)=C/CC/C(=C/CC/C(C)=C/COC(=O)c1ccccc1)COC(=O)c1ccccc1 [Compound E, (E,Z,E)7-hydroxymethyl-3,11,15-trimethyl-2,6,10,14-hexadecatetraen-1-ol dibenzoate]
inhibition in vivo at 171 mg/kg ([1]; 171 mg/kg): 64.5%

CC(C)=CCC/C(C)=C/CCC(=CCC/C(C)=C/CO)CO [Compound B, (E,Z,E) & (E,E,E)7-hydroxymethyl-3,11,15-trimethyl-2,6,10,14-hexadecatetraen-1-ol]
inhibition in vivo at 100 mg/kg [1]: 65%

CC(C)=CCCC(=CCCC(C)=CCC/C(C)=C/CO)CO [Compound L, (E,E,E), (E,Z,E), (E,E,Z) & (E,Z,Z)11-hydroxymethyl-3,7,15-trimethyl-2,6,10,14-hexadecatetraen-1-ol]
inhibition in vivo at 100 mg/kg [1]: 55.3%

CC(C)=CCC/C(C)=C/CCC(=CCCC(C)=CCO)CO [Compound C, (E,Z,E), (E,E,E), (Z,Z,E) & (Z,E,E)7-hydroxymethyl-3,11,15-trimethyl-2,6,10,14-hexadecatetraen-1-ol]
inhibition in vivo at 100 mg/kg [1]: 59%

CC(C)=CCC/C(C)=C/CCC(C)=CCCC(=CCC/C(C)=C/CO)CO [Compound O, 7-Hydroxymethyl-3,11,15,19-tetramethyl-2,6,10,14,18-eicosapentaen-1-ol]
inhibition in vivo at 122 mg/kg ([1]; 122 mg/kg): 74.2%

CC(C)=CCC/C(C)=C/CCC(C)=CCCC(=CCC/C(C)=C/COC(=O)c1ccccc1)COC(=O)c1ccccc1 [Compound Q, 7-Hydroxymethyl-3,11,15,19-tetramethyl-2,6,10,14,18-eicosapentaen-1-ol dibenzoate]
inhibition in vivo at 193 mg/kg ([1]; 193 mg/kg): 56.2%

From patent US4260551A, “Polyprenyl derivatives” (Sankyo Company Limited, priority 1979, dated 1981)
